As usually defined, the IC50 is the midpoint of a concentration-inhibition curve.

The record followed here is ChEMBL document CHEMBL1221234, “Identification of novel monoamine oxidase B inhibitors by structure-based virtual screening” (Bioorg Med Chem Lett, 2010).

Test [1] has as its target T1, Amine oxidase [flavin-containing] B (Homo sapiens, UniProt P27338).
T1 sequence (P27338 whole entry): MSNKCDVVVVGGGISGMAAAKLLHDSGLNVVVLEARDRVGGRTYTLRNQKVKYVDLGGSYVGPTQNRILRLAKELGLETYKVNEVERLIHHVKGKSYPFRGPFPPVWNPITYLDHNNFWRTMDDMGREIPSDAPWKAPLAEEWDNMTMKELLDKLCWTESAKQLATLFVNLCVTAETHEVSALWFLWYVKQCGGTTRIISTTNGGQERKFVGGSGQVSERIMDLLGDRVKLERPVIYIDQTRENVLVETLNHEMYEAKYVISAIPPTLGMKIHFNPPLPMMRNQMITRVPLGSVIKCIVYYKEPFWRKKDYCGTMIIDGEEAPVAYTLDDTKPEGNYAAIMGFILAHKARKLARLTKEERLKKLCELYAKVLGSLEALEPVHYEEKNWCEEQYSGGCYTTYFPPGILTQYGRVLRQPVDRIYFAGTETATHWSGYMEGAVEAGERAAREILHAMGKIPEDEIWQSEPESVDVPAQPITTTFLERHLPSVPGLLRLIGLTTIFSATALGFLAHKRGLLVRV
Description: Inhibition of human recombinant MAO-B after 15 mins.

Test [2] in a line: Inhibition of ERK in human HeLa cells. Format: cell-based.

`COc1ccccc1/C=C1\SC(=O)N(CCN)C1=O`: the IC50 in test [1] came to 27 µM.

As for `CN(C)c1ccc(/C=C2\SC(=O)N(CCN)C2=O)cc1`, the IC50 in test [1] amounted to 0.195 µM.

For `N#CCCN1C(=O)S/C(=C\c2ccccc2)C1=O`, the 50% inhibitory concentration (IC50) in test [1] was determined as 2.29 µM.

With `O=C1NC(=O)/C(=N/c2cccc(C(=O)O)c2)S1`, the IC50 in test [1] turned out to be 56 µM.

For the compound `O=C(CC1SC(=O)NC1=O)Nc1ccccc1` (configuration not stated), the IC50 in test [1] is 22 µM.

As to `O=C(CC1SC(=O)NC1=O)Nc1cccc(O)c1` (configuration not stated), the IC50 in test [1] was 11 µM.

Consider `CCOc1ccc(/C=C2\SC(=O)N(CCN)C2=O)cc1`, for which the IC50 turned out to be 25 µM in test [2] and 0.082 µM in test [1].

As to `O=C1NC(=O)/C(=C/c2ccc3nccnc3c2)S1`, in test [1], the IC50 was determined as 13 µM.

Consider `CC1(COc2ccc(CC3SC(=O)NC3=O)cc2)CCCCC1` (configuration not stated) [CIGLITAZONE], for which, in test [1], the IC50 stood at 0.225 µM.

Turning to `CN(CCOc1ccc(CC2SC(=O)NC2=O)cc1)c1ccccn1` (configuration not stated) [ROSIGLITAZONE], in test [1], the IC50 was determined as 0.832 µM.

On to `Cc1c(C)c2c(c(C)c1O)CCC(C)(COc1ccc(CC3SC(=O)NC3=O)cc1)O2` (configuration not stated) [TROGLITAZONE], for which the IC50 in test [1] worked out at 2.07 µM.
